# Measured values from publication PMC3914206.
# How the values were obtained:
# [1] = target: T1, panel of 442 kinases (Homo sapiens, UniProt Q8TD19); type: binding; conditions: Compound Concentration 10 µM
# T1 construct: purchased KINOMEscan
# T1 sequence (Q8TD19 1-979): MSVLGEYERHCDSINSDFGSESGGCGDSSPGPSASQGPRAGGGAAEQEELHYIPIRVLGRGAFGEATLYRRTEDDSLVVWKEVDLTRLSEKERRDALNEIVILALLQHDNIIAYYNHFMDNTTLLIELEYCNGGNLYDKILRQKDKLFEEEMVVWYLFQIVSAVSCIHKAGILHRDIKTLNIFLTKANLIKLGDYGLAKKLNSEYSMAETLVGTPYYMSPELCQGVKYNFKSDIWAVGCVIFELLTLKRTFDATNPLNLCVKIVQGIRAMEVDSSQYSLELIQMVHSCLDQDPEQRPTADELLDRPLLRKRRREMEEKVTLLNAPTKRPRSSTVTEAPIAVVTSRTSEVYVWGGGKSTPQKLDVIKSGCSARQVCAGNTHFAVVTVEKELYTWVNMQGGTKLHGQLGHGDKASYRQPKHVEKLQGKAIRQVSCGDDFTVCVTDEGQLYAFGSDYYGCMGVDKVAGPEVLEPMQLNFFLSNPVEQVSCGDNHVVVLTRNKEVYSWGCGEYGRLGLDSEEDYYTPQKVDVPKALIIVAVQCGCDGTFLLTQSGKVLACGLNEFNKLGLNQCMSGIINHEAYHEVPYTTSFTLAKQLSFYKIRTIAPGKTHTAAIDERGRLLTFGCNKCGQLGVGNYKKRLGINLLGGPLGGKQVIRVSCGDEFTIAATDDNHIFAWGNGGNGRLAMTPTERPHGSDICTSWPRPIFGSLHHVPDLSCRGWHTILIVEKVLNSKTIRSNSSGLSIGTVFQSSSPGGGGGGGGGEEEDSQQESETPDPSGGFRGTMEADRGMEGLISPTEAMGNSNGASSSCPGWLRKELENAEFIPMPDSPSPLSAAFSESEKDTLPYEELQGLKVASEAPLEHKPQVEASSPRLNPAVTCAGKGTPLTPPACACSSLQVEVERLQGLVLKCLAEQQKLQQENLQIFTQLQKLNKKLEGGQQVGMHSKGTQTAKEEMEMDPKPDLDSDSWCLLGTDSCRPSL
# Text: (§1) We assessed the selectivity of members of this scaffold using the KINOMEscan methodology across a near comprehensive panel of 442 kinases [[18,27]].
# [2] = target: T2, panel of 442 kinases (Homo sapiens, UniProt Q92918); type: binding; conditions: Compound Concentration 10 µM
# T2 construct: purchased KINOMEscan
# Text: as §1
# T2 sequence (Q92918 whole entry): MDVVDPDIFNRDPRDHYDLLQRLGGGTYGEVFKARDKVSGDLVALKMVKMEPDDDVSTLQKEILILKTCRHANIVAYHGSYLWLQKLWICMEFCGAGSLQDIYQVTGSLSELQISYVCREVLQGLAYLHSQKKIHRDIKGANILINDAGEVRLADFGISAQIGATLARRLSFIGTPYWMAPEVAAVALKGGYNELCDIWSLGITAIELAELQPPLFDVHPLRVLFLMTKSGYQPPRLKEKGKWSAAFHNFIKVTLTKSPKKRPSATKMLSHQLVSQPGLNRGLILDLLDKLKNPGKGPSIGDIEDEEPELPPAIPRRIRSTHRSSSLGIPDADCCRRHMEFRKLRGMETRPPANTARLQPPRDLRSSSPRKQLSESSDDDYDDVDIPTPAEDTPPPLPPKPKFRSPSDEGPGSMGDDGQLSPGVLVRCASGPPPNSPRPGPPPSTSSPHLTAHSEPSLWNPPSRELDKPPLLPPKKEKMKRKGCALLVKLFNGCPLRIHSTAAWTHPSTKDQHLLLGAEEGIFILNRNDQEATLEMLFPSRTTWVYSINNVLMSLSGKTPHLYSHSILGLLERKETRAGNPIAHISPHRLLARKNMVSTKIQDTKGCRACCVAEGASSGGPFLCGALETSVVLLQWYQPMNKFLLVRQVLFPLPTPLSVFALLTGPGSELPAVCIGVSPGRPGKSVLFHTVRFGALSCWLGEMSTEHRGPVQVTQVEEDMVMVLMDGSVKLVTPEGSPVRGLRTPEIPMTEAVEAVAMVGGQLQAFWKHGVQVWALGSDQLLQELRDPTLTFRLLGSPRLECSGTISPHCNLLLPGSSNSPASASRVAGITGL
SMILES,KINOMEscan: NEK9 [1],KINOMEscan: HPK1 [2]
"COc1cc(C(=O)N2CCC(N3CCN(C)CC3)CC2)ccc1Nc1ncc2c(n1)N(C1CCCC1)c1ccccc1C(=O)N2C [Compound 25, 11-cyclopentyl-2-((2-methoxy-4-(4-(4-methylpiperazin-1-yl)piperidine-1-carbonyl)phenyl)amino)-5-methyl-5H-benzo[e]pyrimido[5,4-b][1,4]diazepin-6(11H)-one]",98,89
CCOc1cc(C(=O)N2CCC(N3CCN(C)CC3)CC2)ccc1Nc1ncc2c(n1)N(C1CCCC1)c1ccccc1C(=O)N2C [Compound 26],100,94
COc1cc(C(=O)N2CCC(N3CCN(C)CC3)CC2)ccc1Nc1ncc2c(n1)N1CCc3cccc(c31)C(=O)N2C [Compound 24],87,
COc1cc(C(=O)N2CCC(N3CCN(C)CC3)CC2)ccc1Nc1ncc2c(n1)N(C)c1ccccc1C(=O)N2C [15 (LRRK2-IN-1)],100,100
